Experimental data published in US12648928B2, “Intervention strategy for prevention or treatment of diabetes mellitus, autoimmune disease, inflammatory disease or cardiovascular disease” (ACADEMISCH MEDISCH CENTRUM, priority 2020, dated 2026).
“Also recorded” adds a separate entry of the source.

Legend:
[1] = tested on: INS1E cells; test: In vitro stimulation of pancreatic beta cells: gene expression and insulin secretion; format: cell-based, rat
Description: INS1E cells (rat pancreatic beta-cell line) were maintained in complete RPMI1640 supplemented with 5% Fetal Bovine Serum, 2 mM L-glutamine, 5 μM beta-mercaptoethanol, 1 mM sodium pyruvate, 10 mM HEPES, 100 units/ml of penicillin and 100 μg/ml streptomycin. INSIE cells were seeded in 48-well plates at a density of 1×10^5 cells per well and left resting for one day. Subsequently, medium was replaced with 0.5 ml/well of INS1E complete RPMI1640 medium containing vehicle or the metabolites: 6-BT (1/10/25 μM), LysoPC(20:0) (5/10/50 μM), or MA-GPC (10/50/100 μM). After 24 hours, cells and supernatant were harvested for further analysis (gene expression and insulin secretion, respectively) and stored at −80° C. Cells were lysed in Tripure isolation reagent (Roche) before storage.
For glucose-stimulated insulin secretion (GSIS) assay, cells were preincubated in a Krebs-Ringer bicarbonate buffer (KRB) [115 mM NaCl, 5 mM KCl, 2.56 mM CaCl2), 1 mM MgCl2, 10 mM NaHCO3, 15 mM HEPES, and 0.3% of BSA (pH 7.4)] for 30 min at 37° C., following by stimulation with 1 mM glucose in KRB for 1 hour (0.5 ml/well) and stimulation with 22 mM glucose in KRB for another hour (0.5 ml/well) at 37° C. Supernatant was recovered after treatment with 1 mM glucose (Sigma-Aldrich) and 22 mM glucose and cells stored at −80° C. GSIS was performed on beta cells after treatment for 24-hour treatment with 10 μM 6-BT.
(§1) Specific ELISAs (R&D Systems) were utilized to measure the concentration of TNFα, IFNβ, and IFNγ in cell supernatant of murine monocytes, macrophages ad T cells, respectively, according to the manufacturer's instructions. The concentration of insulin after 24-hour treatment with metabolites or after GSIS were determined using Rat insulin ELISA (Mercodia) according to the manufacturer's instructions. GSIS was calculated by subtracting the concentration of insulin at 1 mM glucose to the insulin rate at 22 mM glucose.
Total RNA was extracted from Tripure isolation reagent cell lysates. RNA was converted to cDNA by with iScript kit (BioRad). Quantitative polymerase chain reaction (qPCR) was performed using SYBR Green-SensiMix (Bioline) on a CFX384 Touch Real-Time PCR Detection System (BioRad). The delta delta Ct method was used to calculate gene expression as fold-change compared to control (unstimulated conditions).
Given the positive association between plasma 6-BT levels and C-peptide concentrations (found in the clinical study), it was then questioned whether 6-BT can exert a direct effect on beta cells. Indeed, it is seen here that 6-BT induces, in IS1E beta cells, the gene expression of the transcription factors PDX1 and MAFA, which are important for beta cell maturation and functionality.

[2] = tested on: murine CD4+ T cells; test: In vitro CD4+ T cell activation assay (anti-CD3/anti-CD28); format: cell-based
Description: Primary CD4+ T cells were freshly isolated by negative selection from spleens of C57/B16 mice (N=3 per experiment). Briefly, spleens were smashed in a culture dish and passed twice through a strainer (70 μm and 40 μm, respectively) to obtain a single-cell suspension.
Using the negative selection (CD4+ T Cell Isolation kit, Miltenyi Biotec, #130-10-454). Non-CD4 T cells were depleted by retaining them in LS magnetizing column (Miltenyi Biotec).
Isolated CD4 T cells were cultured in 96-well plates (1×10^5 per well) in RPMI1640 medium supplemented with 10% fetal bovine serum, 100 U/ml penicillin, 100 μg/ml streptomycin, 2 mM L-glutamine. Treatment with the metabolites 6-BT (1/10 μM), LysoPC(20:0) (10/50 μM) or MA-GPC (10/50/100 μM) and activation with 2.5 μg/ml soluble anti-CD3 (145-2C11, eBioscience) and 1 μg/ml soluble anti-CD28 (37.51, eBioscience) antibodies started immediately after seeding in 200 i/well complete RPMI1640 media for a 24-hour period, at the end of which supernatant was harvested and stored at −80° C.
as §1
Particularly in the context of autoimmune diabetes, the activity of T cells is driving disease onset and progression. […] To mimic antigen presentation, murine CD4 T cells (isolated from spleens; Uchimura T., The Innate Immune Sensor NLRC3 Acts as a Rheostat that Fine-Tunes T Cell Responses in Infection and Autoimmunity. Immunity 2019) were activated by monoclonal antibodies against CD3 and CD28 (2.5 and 1 μg/ml, respectively).

[3] = tested on: NF-κB; test: NF-κB reporter macrophage luciferase assay (RAW264.7); format: cell-based, murine
Description: NF-κB signaling activation was assessed by luciferase activity assay. RAW264.7 cells stably transfected with the 3×-κB-luc plasmid (DNA construct containing three NF-κB sites from the Ig κ light chain promoter coupled to the gene encoding firefly luciferase) were grown in DMEM medium supplemented with 10% heat-inactivated fetal bovine serum, penicillin (100 U/ml), streptomycin (100 μg/ml), L-glutamine (2 mM). Cells were seeded in F-bottom 96-well […] metabolites at different concentrations (6-BT 0,1-100 μM, LysoPC(20:0) 1-10 μM, 16:0-18:2 PE 1-50 μM, MA-GPC 1-100 μM). Afterwards, cells were lysed with 25 μl/well 1×passive lysis buffer and firefly luciferase activity was measured by LUCIFERASE® Assay System (Promega, E1500) on a GLOMAX @-Multi Detection System (Promega).

NFκB pathway activation in macrophages ([3]; RAW264.7 3x-κB-luc, LPS 10/100 ng/ml 2 hours, different doses (FIG. 7)): can inhibit NFκB pathway activation
Compound: N[C@@H](Cc1c[nH]c2cc(Br)ccc12)C(=O)O [6-BT, 6-bromotryptophan]
pancreatic beta-cell function ([1]; INS1e beta-cells treated for 24 hours, beta cell differentiation markers (FIGS. 12 and 13)): enhances pancreatic beta-cell function
gene expression of the transcription factor MAFA ([1]; beta cells (FIG. 17)): induces
gene expression of the transcription factor PDX1 ([1]; beta cells (FIG. 17)): induces
insulin secretion at steady-state ([1]; beta cells, 24-hour treatment (FIG. 17)): promotes insulin secretion
glucose-stimulated insulin secretion ([1]; difference between insulin release at 1 mM and 22 mM glucose, 24-hour treatment with 10 μM): promotes insulin secretion
production of the Th1 cytokine IFNgamma ([2]; CD4 T cells from spleens, anti-CD3 2.5 μg/ml and anti-CD28 1 μg/ml (FIGS. 16, 20)): significantly reduced; also recorded: exerted inhibitory effect
Th1 responses in CD4 T cells ([2]; anti-CD3 & anti-CD28 mAbs, 24 hours (FIG. 11)): dampen Th1 responses
transcriptional activity of the NFkB complex ([3]; RAW264.7 NFkB luciferase reporter, overnight exposure 10-200 μM, 2 hours LPS (10 μg/ml) (FIG. 19)): inhibits the transcriptional activity of the NFkB complex in a dose-dependent manner
